# Measured values published in patent US7736649B2, “Methods of inhibiting human immunodeficiency virus infection through the administration of synergistic combinations of anti-CCR5 monoclonal antibodies, fusion inhibitors, and CD4-GP120 binding inhibitors” (priority 2000, dated 2010).
# Read-outs that look alike come from different tables or passages of the source.
# Assays:
# HIV-1 = conditions: cited from earlier work
# [1] = test system: HIV-1 fusion intermediates; conditions: cited from earlier work
# HIV-1JR-FL (R5) = test system: HIV-1JR-FL (R5)
# Method: HIV-1 virus-cell fusion assays NLluc^+env^− viruses were complemented in trans by the envelope glycoproteins (Env) from HIV-1JR-FL (R5) or HIV-1DH123 (R5X4). HeLa-CD4^+CCR5^+ cells were infected with chimeric reporter viruses containing 50-100 ng/ml of p24 in the presence or absence of drugs. Cells were washed and fed fresh drug-containing media at 2 h and drug-free media at 12 h. After 72 h, cell lysates were assayed for luciferase activity.
# (§1) Quantitative analysis of drug interactions Inhibition data from three independent assays were averaged and analyzed for cooperative effects using the Combination Index (CI) method. In all analyses, PRO 542 and T-20 were assumed to act non-competitively, which leads to a more conservative estimate of synergy. CI values of <0.9 (or >1.1) were taken to represent meaningful synergy (or antagonism). Dose reductions were calculated as the ratio of drug concentrations required for inhibition when the drug is used, alone or in combination.
# An HIV-1 virus-cell fusion assay is described in FIG. 15. In a single-cycle HIV-1 entry assay, Env-Luc+ HIV reporter viruses were prepared as described. The viruses are complemented with gp120/gp41 from an HIV strain of interest and thus are capable of fusing with target cells that express CD4 and fusion coreceptors, resulting in the introduction of the viral genes into the cell. Because the viruses encode the luciferase reporter enzyme rather than HIVenv, infection leads to the production of luciferase rather than new viral particles. The amount of luciferase is measured 72 hours post-infection using standard methods.
# [2] = test system: HIV-1JR-FL env-mediated membrane fusion
# Method: HIV-1 envelope-mediated fusion between HeLa-EnvJR-FL and PM1 cells was detected using a Resonance Energy Transfer (RET) assay.
# HIV-1 inhibition data were analyzed according to the Combination Index method of Chou and Talay. The data are modeled according to the median-effect principle, which can be written f=1/[1+(K/c)^m] (1) where f is the fraction affected/inhibited, c is concentration, K is the concentration of agent required to produce the median effect, and m is an empirical coefficient describing the shape of the dose-response curve. Equation (1) is a generalized form of the equations describing Michaelis-Menton enzyme kinetics, Langmuir adsorption isotherms, and Henderson-Hasselbalch ionization equilibria, for which m=1 in all cases. In the present case, K is equal to the IC50 value. K and m are determined by curve-fitting the dose-response curves.
# (§2) After the best-fit parameters for K and m are obtained for the experimental agents and their combination, Equation (1) is rearranged to allow for calculation of c for a given f. The resulting table of values (e.g., Figure X) is used to calculate the Combination Index (CI) using the equation CI=c1m/c1+c2m/c2+c1mc2m/c1c2 (2) where • c1=concentration of compound 1 when used alone • c2=concentration of compound 2 when used alone • C1m=concentration of compound 1 in the mixture • C2m=concentration of compound 2 in the mixture
# All concentrations are those required to achieve a given degree of inhibition. Equation (2) is used when the molecules are mutually nonexclusive, i.e., have different sites of action. Since this is the likely scenario for inhibitors of HIV-1 attachment and gp41 fusion intermediates, Equation (2) was used for all Combination Index calculations. Mutually nonexclusive calculations provide a more conservative estimate of the degree of synergy that mutually exclusive calculations, for which the c1mc2m/c1c2 term is dropped. CI<1 indicates synergy, CI=1 indicates purely additive effects, and CI>1 indicates antagonism. In general, CI values are most relevant at the higher levels of inhibition that are required to achieve a measurable clinical benefit.
# as §2, with “c2 concentration” for “c2=concentration”, “c1m=concentration” for “C1m=concentration”, “c2m=concentration” for “C2m=concentration”
# HIV-1 cell-cell fusion assays Cell-cell fusion mediated by the envelope glycoproteins of HIV-1JR-FL and HIV-1LAI was measured using a fluorescence resonance energy transfer (RET) assay, which measures fusion between HeLa cells expressing HIV-1 envelope glycoproteins and CD4^+ target cells. The T cell lines PM1 and SupT1 were used as target cells in this study. PM1 endogenously express CCR5 and CXCR4. […] The RET signal is directly related to the extent of membrane fusion.
# as §1
# An HIV-1 cell-cell fusion assay is described in FIG. 18. Such assay is a Resonance Energy Transfer (RET) assay of HIV-1 membrane fusion.
# [3] = cells and inhibitor co-incubated 2 h at 25° C. prior to washing and warming to 37° C., data not shown
substance,measurement,setting,value
enfuvirtide,"pK, in words",HIV-1; Phase I/II clinical trials,supports twice daily subcutaneous dosing
same,tolerability,HIV-1; Phase I/II clinical trials,good tolerability
same,"viral load, in words",HIV-1; Phase I/II clinical trials,clinically significant dose-dependent reductions
same,reduction of plasma HIV RNA levels,HIV-1; Phase I/II,≤ 2 logs
same,reductions in HIV RNA,"HIV-1; single agent, Phase I/II trials",1-2 log10
same,inhibition,[1]; added at 75 minutes,< 10%
same,inhibition,[1]; added within the first 15 minutes of cell mixing,100%
same,dose reduction (fold less drug needed),"HIV-1JR-FL (R5); 90-95% inhibition, 1:2 molar",~20 fold
same,IC90,"HIV-1JR-FL (R5); read-out: IC90 (concentration required for 90% inhibition), alone, or total of 1:2 molar PRO 542:T-20 combination",45 nM
same,IC90,"HIV-1JR-FL (R5); read-out: concentration of the agent in the combination at IC90, 1:2 molar combination",2.6 nM
same,concentration of the agent contained in the combination at 95% inhibition,[2]; 25:1 CD4-IgG2:T-20 mass ratio combination,0.044 µg/mL
same,dose reduction (alone v. in combination),"[2]; 95% inhibition, 25:1 mass ratio",5 fold
same,"activity in cell-cell preincubation assay, in words","[2]; HeLa-Env and PM1 cells co-incubated 2 h at 25° C., inhibitor added, warmed to 37° C.",fully active
same,concentration required for inhibition of viral entry by 95%,"[2]; agent used alone, or total of 25:1 mass ratio combination",0.21 µg/mL
same,IC90,"[2]; alone, or total of 1:10 molar PRO 542:T-20 combination",22 nM
same,"K (concentration producing the median effect, equal to IC50)","[2]; best-fit median-effect parameter, 4 h incubation, mean of three experiments",0.017 µg/mL
same,"activity, in words",[2]; [3],essentially inactive
same,fold increase in IC50,[2]; [3],> 250 fold
same,activity when pre-incubated with PM1 cells prior to washing,[2]; data not shown,Neither drug demonstrated activity
same,"activity in washout assay, in words","[2]; drug pre-incubated with HeLa-Env cells, washed, then PM1 cells added",essentially inactive
same,IC90,"[2]; read-out: concentration of the agent in the combination at IC90, 1:10 molar combination",4.9 nM
